Measurements: US4742073A (priority 1982, dated 1988)
Where two headings read alike, the source gives them in different places.

What was measured:
[1] = Hydrolysis/stability of O-acyl pilocarpic acid esters in plasma-free buffer (specific base catalysis); format: physicochemical; conditions: for kOH (catalytic rate constant, specific base-catalyzed hydrolysis): 37° C., based on hydroxide ion activity; for half-life: buffer
Experimental: ^c The hydrolysis is specific basecatalyzed and the data shown were
obtained by extrapolating experimental rate constants at pH 10-12 to pH
7.4. At 20° C. the t0.5 values were 4.5 and 1.4 years, […]

[2] = Shelf-life / stability of aqueous solutions; format: physicochemical
Experimental: At such pH values the stability is much increased as compared with that at neutral and basic pH values. […] At these pH values solutions of the compound were predicted to have shelf-lives in excess of 8 years at 25° C. and 20 years at 20° C. as determined on the basis of temperature-accelerated kinetic stability studies.

[3] = tested on: eyes of the rabbits; test: Ophthalmic pupillary diameter or miosis study; format: in vivo, male albino rabbits; conditions: for duration of miotic activity of the di-esters: FIG. 5, 0.5% pilocarpine nitrate equivalent; for duration of miotic effect compared with pilocarpine / overall miotic effect compared with pilocarpine: 25 μl topical, pH 4.5, FIG. 3, in words
Experimental: Twenty-five microliter volumes of each solution were administered by topical ophthalmic instillation to male albino rabbits, and pupillary diameter changes or miotic activities in the eyes of the rabbits were recorded as a function of time, and were compared. A detailed description of the procedure for the miosis study is given in Mitra & Mikkelson (1982) and references cited therein. […] Thus, the miotic activity observed after administration of a solution of O-benzoyl pilocarpic acid 4-methylbenzyl ester lasted for 4.5 hours as shown in FIG. 4. The equivalent concentrations and pH were the same as in the above experiment.
The compounds are: 4-methylbenzyl pilocarpic acid ester, O-benzoyl pilocarpic acid 4-methylbenzyl ester, and O-acetyl pilocarpic acid 4-methylbenzyl ester. In each of these three derivatives the R1 -substituent is the 4-methylbenzyloxy group. […] Duration of the activity of the di-esters is seen to be approximately 4.5 hours.
In FIG. 6 the compounds are the O-benzoyl 4-chlorobenzyl, the O-phenylacetyl benzyl, and the O-3-chlorobenzoyl benzyl pilocarpic acid esters. In FIG. 7 the compounds are the O-benzoyl benzyl, the O-butyryl 4-methylbenzyl and the O-nicotionyl benzyl pilocarpic acid esters. […] Again, the extended duration is apparent. Thus, even though the dosage level is less than in the previous experiments, the miotic effect is apparent for up to 4.5 hours after administration.

[4] = Apparent partition coefficient 1-octanol/phosphate buffer pH 7.4; format: physicochemical; conditions: for log P: pH 7.4
[5] = Degradation of O-acyl pilocarpic acid esters and formation of pilocarpine in 75% human plasma; format: in vitro ADME; conditions: for half-life: 75% plasma
Excerpt: ^b In 75% human plasma (pH 7.4) the 4methylbenzyl ester of pilocarpic
O--acyl esters as determined by HPLC.

[6] = physchem; format: physicochemical
Excerpt: The assays would allow a formation of isopilocarpine or isopilocarpic acid of 1% to be detected.

[7] = pKa, solubility and other physicochemical properties; conditions: in words
[8] = 25 μl of 0.25% (pilocarpine nitrate equivalent), FIGS. 6 and 7
[9] = octanol/buffer, pH 7.4, di-esters (Table 3), read-out: log P octanol/buffer pH 7.4
[10] = human, pH 7.4, 37° C., di-esters (Table 3), read-out: t0.5 human plasma (75%)
[11] = pH 7.4, 20° C., hydrolysis in buffer pH 7.4, extrapolated (Table 2 footnote c), read-out: t0.5 values at 20° C. (converted)
[12] = pH 7.4, 37° C., extrapolated from rate constants at pH 10-12 to pH 7.4, read-out: t0.5 of hydrolysis to pilocarpic acid 4-methylbenzyl ester, pH 7.4 buffer (converted)
[13] = octanol/phosphate buffer, pH 7.4, octanol / 0.05 M phosphate buffer pH 7.40, O-acyl derivatives of pilocarpic acid 4-methylbenzyl ester (Table 2), read-out: Partition coefficients (P) (converted)
[14] = 75% human plasma (pH 7.4) at 37° C., in words
[15] = 75% human plasma (pH 7.4) at 37° C., read-out: half-lives of degradation in 75% human plasma
[16] = octanol/phosphate buffer, pH 7.4, Partition coefficients (P)
[17] = 0.5% pilocarpine nitrate equivalent

CC[C@H](C(=O)OCc1ccccc1)[C@H](COC(=O)c1ccccc1)Cc1cncn1C [Example 14, O-Benzoyl Pilocarpic Acid Benzyl Ester]
kOH (catalytic rate constant, specific base-catalyzed hydrolysis) [1]: 0.0633 M⁻¹ s⁻¹
predicted shelf-life at 20° C. ([2]; aqueous solution pH 3-5, 20° C., temperature-accelerated kinetic stability studies): > 20 years
predicted shelf-life at 25° C. ([2]; aqueous solution pH 3-5, 25° C., temperature-accelerated kinetic stability studies): > 8 years
pH region of maximum stability ([2]; aqueous solutions): 3-5 pH
time for which miotic effect is apparent [3, 8]: up to 4.5 hours
logD [4, 9]: 4.22
half-life [5, 10]: 0.2 h

CC[C@H](C(=O)OCc1ccc(C)cc1)[C@H](COC(=O)c1ccccc1)Cc1cncn1C [Example 11, O-Benzoyl Pilocarpic Acid 4-Methylbenzyl Ester]
kOH (catalytic rate constant, specific base-catalyzed hydrolysis) [1]: 0.0667 M⁻¹ s⁻¹
half-life [1, 11]: 1640 days
half-life [1, 12]: 200 days
duration of miotic activity ([3]; 25 μl, 0.5% pilocarpine nitrate equivalent, FIG. 4): 4.5 h
bioavailability relative to pilocarpine ([3]; FIG. 4, 0.5% pilocarpine nitrate equivalent): approximately 4 fold
duration of miotic activity of the di-esters [3]: approximately 4.5 hours
logD [4, 9]: 4.7
logD [4, 13]: 4.7
yield of pilocarpic acid 4-methylbenzyl ester formed in plasma [5, 14]: quantitative amounts
sum of the concentrations of O-benzoyl di-ester, intermediate ester and pilocarpine at any time ([5]; 75% human plasma, FIG. 2): 100±3%
half-life [5, 15]: 0.267 h

CC[C@H](C(=O)OCCc1ccccc1)[C@H](CO)Cc1cncn1C [Example 9, Pilocarpic Acid 2-Phenylethyl Ester]
log P ([4]; octanol/phosphate buffer): 2.16
logD [4, 16]: 2.16

CC[C@H](C(=O)OCc1ccccc1)[C@H](COC(=O)Cc1ccccc1)Cc1cncn1C [Example 19, O-Phenylacetyl Pilocarpic Acid Benzyl Ester]
kOH (catalytic rate constant, specific base-catalyzed hydrolysis) [1]: 0.362 M⁻¹ s⁻¹
time for which miotic effect is apparent [3, 8]: up to 4.5 hours
logD [4, 9]: 3.85
half-life [5, 10]: 0.0667 h

CC[C@H](C(=O)OCc1ccc(Cl)cc1)[C@H](CO)Cc1cncn1C [Example 4, Pilocarpic Acid 4-Chlorobenzyl Ester]
duration of miotic effect compared with pilocarpine [3, 17]: most significantly and dramatically longer
overall miotic effect compared with pilocarpine [3, 17]: significantly greater in their overall effect
half-life ([6]; buffer, pH 7.4): 0.5 h
logD [4, 16]: 2.54

CC[C@H](C(=O)OCc1ccc(C)cc1)[C@H](COC(C)=O)Cc1cncn1C [Example 12, O-Acetyl Pilocarpic Acid 4-Methylbenzyl Ester]
kOH (catalytic rate constant, specific base-catalyzed hydrolysis) [1]: 0.21 M⁻¹ s⁻¹
half-life [1, 11]: 511 days
half-life [1, 12]: 62.5 days
duration of miotic activity of the di-esters [3]: approximately 4.5 hours
logD [4, 9]: 3.16
logD ([4]; octanol/phosphate buffer, pH 7.4, octanol / 0.05 M phosphate buffer pH 7.40 (Table 2), read-out: log P): 3.16
logD [4, 13]: 3.16
yield of pilocarpic acid 4-methylbenzyl ester formed in plasma [5, 14]: quantitative amounts
half-life [5, 15]: 0.4 h

CC[C@@H]1C(=O)OC[C@@H]1Cc1cncn1C [Pilocarpine, reference compound]
shelf life in aqueous solutions ([2]; pilocarpine, pH 6.4 and 20° C.): less than 1 year
water solubility of pilocarpine ([7]; free base form and various salts): extremely water-soluble

CC[C@H](C(=O)OCc1ccc(C)cc1)[C@H](CO)Cc1cncn1C [Example 5, Pilocarpic Acid 4-Methylbenzyl Ester]
shelf-life (time for 10% decomposition) at 4° C. ([2]; aqueous solution pH 4.0, 4° C.): 3.8 years
shelf-life (time for 10% decomposition) at 20° C. ([2]; aqueous solution pH 4.0, 20° C.): about 1.5 years
duration of miotic effect compared with pilocarpine [3, 17]: most significantly and dramatically longer
overall miotic effect compared with pilocarpine [3, 17]: significantly greater in their overall effect
half-life ([6]; buffer, pH 7.4): 1.28 h
half-life ([6]; plasma-free buffer): 1.28 h
logD [4, 16]: 2.31
extent of cyclization to pilocarpine in plasma [5, 14]: cyclized quantitatively to pilocarpine
half-life ([5]; 75% human plasma (pH 7.4) at 37° C., after formation from the O-acyl esters): 1.38 h

CC[C@H](C(=O)OCc1ccccc1C)[C@H](CO)Cc1cncn1C [Example 6, Pilocarpic Acid 2-Methylbenzyl Ester]
logD [4, 16]: 2.27

CCCC(=O)OCC(Cc1cncn1C)C(CC)C(=O)OCc1ccc(C)cc1 (centres unmarked) [Example 18, O-Butyryl Pilocarpic Acid 4-Methylbenzyl Ester]
kOH (catalytic rate constant, specific base-catalyzed hydrolysis) [1]: 0.0583 M⁻¹ s⁻¹
time for which miotic effect is apparent [3, 8]: up to 4.5 hours
logD [4, 9]: 4.09
half-life [5, 10]: 0.25 h

CC[C@H](C(=O)OCc1ccccc1)[C@H](COC(=O)c1cccnc1)Cc1cncn1C [Example 20, O-Nicotinoyl Pilocarpic Acid Benzyl Ester]
kOH (catalytic rate constant, specific base-catalyzed hydrolysis) [1]: 0.74 M⁻¹ s⁻¹
time for which miotic effect is apparent [3, 8]: up to 4.5 hours
logD [4, 9]: 2.9
half-life [5, 10]: 0.1 h

CC[C@H](C(=O)OCc1ccc(Cl)cc1)[C@H](COC(=O)c1ccccc1)Cc1cncn1C [Example 15, O-Benzoyl Pilocarpic Acid 4-Chlorobenzyl Ester]
kOH (catalytic rate constant, specific base-catalyzed hydrolysis) [1]: 0.0567 M⁻¹ s⁻¹
time for which miotic effect is apparent ([3]; 25 μl of 0.125% (pilocarpine nitrate equivalent), FIG. 6): up to 4.5 hours
logD [4, 9]: 4.75
half-life [5, 10]: 0.283 h

CC[C@H](C(=O)OCCc1ccccc1)[C@H](COC(=O)c1ccccc1)Cc1cncn1C [Example 16, O-Benzoyl Pilocarpic Acid 2-Phenylethyl Ester]
kOH (catalytic rate constant, specific base-catalyzed hydrolysis) [1]: 0.0633 M⁻¹ s⁻¹
logD [4, 9]: 4.6
half-life [5, 10]: 0.25 h

CC[C@H](C(=O)OC(C)c1ccccc1)[C@H](CO)Cc1cncn1C (some centres unmarked) [Example 13, Pilocarpic Acid 1-Phenylethyl Ester]
log P ([4]; octanol/phosphate buffer): 2.08
logD [4, 16]: 2.08

CC[C@H](C(=O)OCc1ccccc1)[C@H](CO)Cc1cncn1C [Example 3, Pilocarpic Acid Benzyl Ester]
duration of miotic effect compared with pilocarpine [3, 17]: most significantly and dramatically longer
overall miotic effect compared with pilocarpine [3, 17]: significantly greater in their overall effect
half-life ([6]; buffer, pH 7.4): 0.833 h
hygroscopicity [7]: hygroscopic
logD [4, 16]: 1.82

CC[C@H](C(=O)OCc1ccccc1)[C@H](COC(=O)c1cccc(Cl)c1)Cc1cncn1C [Example 17, O-3-Chlorobenzoyl Pilocarpic Acid Benzyl Ester]
kOH (catalytic rate constant, specific base-catalyzed hydrolysis) [1]: 0.243 M⁻¹ s⁻¹
time for which miotic effect is apparent [3, 8]: up to 4.5 hours
logD [4, 9]: 4.93
half-life [5, 10]: 0.417 h

CCCCOC(=O)[C@@H](CC)[C@H](CO)Cc1cncn1C [Example 2, Pilocarpic Acid Butyl Ester]
half-life ([6]; buffer, pH 7.4): 13.7 h
logD [4, 16]: 1.58
